Biological target: T1, pooled human liver microsome (HLM) preparations (Homo sapiens, UniProt Q02928)
T1 sequence (Q02928 5-519): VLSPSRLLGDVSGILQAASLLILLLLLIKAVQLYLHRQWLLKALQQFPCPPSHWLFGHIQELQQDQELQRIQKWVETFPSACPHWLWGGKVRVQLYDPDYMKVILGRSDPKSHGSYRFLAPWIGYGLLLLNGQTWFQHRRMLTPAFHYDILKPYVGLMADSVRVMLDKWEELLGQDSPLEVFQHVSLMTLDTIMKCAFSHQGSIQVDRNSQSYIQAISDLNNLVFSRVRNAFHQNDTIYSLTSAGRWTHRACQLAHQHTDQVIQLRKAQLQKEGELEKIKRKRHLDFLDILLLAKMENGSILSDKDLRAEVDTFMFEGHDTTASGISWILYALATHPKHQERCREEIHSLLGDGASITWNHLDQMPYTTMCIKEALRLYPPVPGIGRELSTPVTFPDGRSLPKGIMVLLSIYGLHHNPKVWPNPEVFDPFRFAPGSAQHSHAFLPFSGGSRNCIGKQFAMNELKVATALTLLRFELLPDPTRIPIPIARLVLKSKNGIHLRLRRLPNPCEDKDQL
Assay: Inhibition of MONACRA demethylation in pooled HLM preparations
Format: biochemical
Details: all studied HLM samples; from inhibitory analysis with epalrestat
Source text: To probe the role of CYP4A11 and CYP1A2 in MONACRA metabolism by HLM, we employed inhibitory analysis with the use of epalrestat as a specific inhibitor of CYP4A11 [22] and fluvoxamine as a CYP1A2 inhibitor [37]. We explored the effect of the inhibitors on the activity of recombinant CYP1A2 and CYP4A11, as well as the activity of six different preparations of HLM (preparation X347 was not available at the time of the study).
Figure 12: Effect of epalrestat (A) and fluvoxamine (B) on 3-(6-methoxynaphthalen-2-yl)acrylic acid (MONACRA) demethylation by recombinant CYP1A2 (black) and CYP4A11 (red) and three pooled human liver microsome (HLM) preparations: X263 (green), DNJ (blue), and WGP (brown). Solid lines represent the approximation of the datasets by eqn 1 (in the instances of pure inhibition) or a combination of two hyperbolic equations (in the cases of activation or combined inhibition and activation). All experiments were carried out at 150 µM MONACRA concentration. The datasets shown in the graphs represent the averages of the results of four (fluvoxamine) or two (epalrestat) individual experiments.
This study used preparations of pooled HLMs from 50, 150, or 200 donors (mixed gender). The preparations CDN, DNJ, and WGP were INVITROCYP 150-Donor Human Liver Microsomes obtained from BioIVT Corporation (Westbury, NY). Lot EGW is INVITROCYP M-Class 50-Donor HLM procured from the same company. Lots 1,910,096 and 1,210,347 were XTreme 200 Mixed Gender HLM (200 donors) purchased from XenoTech LLC (Kansas City, KS), currently a part of BioIVT. Lot 2,110,263 corresponds to mixed gender HLM from 50 donors from the same company. These lots are referred to herein as X096, X347, and X263, respectively. The supplier of the HLM preparations used in our studies, BioIVT Corporation, has declared to adhere to the regulations of the Department of Health and Human Services for the protection of human subjects (45 CFR §46.116 and §46.117) and Good Clinical Practice, (ICH E6) in obtaining the samples of human tissues used for producing the preparations of human subcellular fractions available from these companies.
Inhibition of MONACRA metabolism by epalrestat and fluvoxamine was studied using the high-throughput assay described above. The substrate concentration was kept constant at 150 µM. Each column of the well plate comprised eight wells with different concentrations of inhibitor complemented with two wells with no inhibitor added (100% activity samples) and two wells with no inhibitor and no NADPH added (‘blank’ samples). […] The fractional inhibition at each inhibitor concentration was determined from the ratio of the reaction rate in the presence of an inhibitor to the rate observed at no inhibitor added. The resulting dependence of the fractional inhibition on the inhibitor concentration was fitted to a four-parameter logistic equation (Hill equation):
(1) FI=v0−vi/v0=Amax[I]^N/IC50+[I]^N
In this equation, F I and vi are the fractional inhibition and the reaction velocity observed at inhibitor concentration [I], v0 is the reaction rate at no inhibitor added, and A max is the maximal amplitude of inhibition. IC 50 is the concentration of inhibitor at which the inhibition reaches 50% of its maximal amplitude (A max), and N is the Hill coefficient.

## COc1ccc2cc(C=CC(=O)O)ccc2c1 [MONACRA, 3-(6-methoxynaphthalen-2-yl)acrylic acid]
  share of MONACRA demethylation for which CYP4A11 is responsible: > 93%

— PMC12191924, “A new naphthalene-based fluorogenic substrate for cytochrome P450 4A11” (Biochemical Journal, 2025)
